# Literature values, collected in patent publication US10441593B2, “Treatment of pain associated with dislocation of endometrium” (PREGLEM S.A., priority 2010, dated 2019).
# What was measured:
# endometriosis = conditions: cited from earlier work
# liver enzyme = conditions: clinical development program; 12.5 mg, 25 mg and 50 mg; cited from earlier work
structure (smiles),measurement,setting,value
COCC(=O)[C@@]1(OC(C)=O)CC[C@H]2[C@@H]3CCC4=CC(=O)CCC4=C3[C@@H](c3ccc(N(C)C)cc3)C[C@@]21C [Proellex],days of pain compared with baseline,"endometriosis; 50 mg group, end of the first months of therapy",statistically significant reduction in days of pain
same,dose response in treatment of endometriosis,endometriosis; 6 month study,clearly support a dose response
same,"liver enzyme (sign of liver toxicity, DILI)",liver enzyme,dose related increase in liver enzyme
